Reference: PubChem BioAssay AID179 (DTP/NCI, 2004)
Calls of active or inactive are those of the source.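 The calls were made as follows: active = compounds giving half or more protection of infected cells from virus-caused growth loss, again on retest; inactive = the rest.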 Where a SMILES comes first, the peptide text is derived from it. The star is where a group is joined. Cbz = O=C(OCc1ccccc1)*

Tested on: CEM cells HIV-1 protection, formazan growth assay
Test: NCI AIDS Antiviral Assay
Conditions: for IC50: measured here: growth of uninfected CEM cells
Method in brief: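 Five concentrations of each compound were applied to infected and uninfected human CEM cells. Protection from HIV-1 was judged from growth measured with a soluble formazan assay.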

Row | SMILES | EC50 [µM] | IC50 [µM] | outcome
1 | COc1cccc2c1cc([N+](=O)[O-])c1c(C(=O)O)cc3c(c12)OCO3 | > 200 | 19.1 | –
2 | CCCCCC(=O)c1c(O)cc2c(c1O)C(=O)c1c(O)cc(O)cc1C2=O | > 200 | 56.2 | –
3 | CN1CNc2nc(N)n(C)c(=O)c2C1 | > 200 | > 200 | –
4 | NC(CS)=NCCc1nc2ccccc2[nH]1 | > 200 | 110 | –
5 | Nc1nc2ncn(O)c2c(=O)[nH]1 | > 112 | 0.347 | –
6 | O=c1c2cc(-c3ccccc3)sc2nc2n1N=C(c1ccc(Cl)cc1)CS2 | > 200 | > 200 | –
7 | CCN(CC)CCn1ncc2ccc3c(c(=O)c4cccnc4n3CCN(CC)CC)c21 | > 20 | 0.309 | –
8 | O=C(OCn1ncc2ccc([N+](=O)[O-])cc21)c1ccc(Cl)c(Cl)c1 | > 200 | 129 | –
9 | CCOC(=O)/C(=C\c1cccc(Br)c1)P(=O)(OCC)OCC | > 91.2 | 6.03 | –
10 | O=C(O)C(Cc1ccccc1)NC(=O)C1CCCN1C(=O)OCc1ccccc1 (stereo not drawn) (Cbz-Pro-Phe-OH; configuration not given here) | > 631 | > 631 | –
11 | CCc1cc[c]([Sb](=[O])([OH])[OH])cc1 | – | – | inactive
12 | c1ccc2c(c1)CCc1c-2n(CCN2CCOCC2)c2ccccc12 | > 200 | > 200 | –
13 | CC(C)[Si](OC1=CCC[C@H]2NC(=O)[C@@H](Cc3ccccc3)[C@@]12C)(C(C)C)C(C)C | > 200 | 12 | –
14 | NNC(=O)CC(=O)Nc1ccccc1Cl | > 200 | > 200 | –
15 | COC(=O)C12c3ccccc3C(c3ccccc31)c1c(N=O)ccc(NO)c12 | > 19.5 | > 19.5 | –
16 | CC(=O)O[C@@H](c1nccn1Cc1ccccc1)[C@H]1OC(C)(C)O[C@@H]1[C@H]1COC(C)(C)O1 | > 200 | > 200 | –
17 | CCCCNC(=O)Cn1c2ccc(Br)cc2c2nc3ccccc3nc21 | > 100 | > 100 | –
18 | COC(=O)c1ccccc1N1C(=O)Cc2ccccc2C1=O | – | – | inactive
19 | [Cl-].[Rh+3].c1ccc(-c2ccnc3c2ccc2c(-c4ccccc4)ccnc23)cc1.c1ccc(-c2ccnc3c2ccc2c(-c4ccccc4)ccnc23)cc1.c1ccc(-c2ccnc3c2ccc2c(-c4ccccc4)ccnc23)cc1 | > 11 | 7.08 | –
20 | CCCC[C@@H]1CCN2C[C@@H](O)[C@@H](O)[C@H]2[C@@H]1O | > 200 | > 200 | –
21 | CCCC(NCCNC(CCC)C(=O)O)C(=O)O (stereo not given) | > 589 | > 589 | –
22 | CN(C)CCNC(=O)c1cccc(CO)c1[N+](=O)[O-] | > 200 | > 200 | –
23 | Cc1nc2ccccc2c(=O)n1-c1nc2ccccc2s1 | > 200 | 31.6 | –

Row | SMILES | EC50 [µM] | IC50 [µM] | outcome
24 | CC12CCC3=C(CSC4=C3CSc3ccccc34)C1=CCCC2=O (stereo not given) | > 200 | > 200 | –
25 | CC1=C(C)C(=O)C(C2=C(C3=CC(=O)C(C)=C(C)C3=O)C(=O)C(C)=C(C)C2=O)=CC1=O | > 20 | 1.02 | –
26 | C=C1CC/C=C(/C(=O)O)CC[C@H]2[C@@H]1CC2(C)C | > 200 | 178 | –
27 | CCCCCCCCCCn1nnc2c(=O)[nH]c(N)nc21 | > 200 | 52.5 | –
28 | COC(=O)C1=C(c2ccccc2)C(O)(c2ccccc2)C(C(=O)OC)C1=O (stereo not given) | > 339 | 209 | –
29 | COc1ccc(N2C(=O)C3c4[nH]c5ccccc5c4C4CCC(C(C)(C)C)CC4C3C2=O)c(C)c1 (stereo not given) | > 200 | > 200 | –
30 | CCOC(=O)C1SC(=Nc2ccc(OC)c(OC)c2)N=C1C (stereo not given) | > 22.4 | > 22.4 | –
31 | CS(=O)(=O)c1nc(Cl)c(Cl)c(C#N)c1Cl | > 200 | 0.457 | –
32 | O=C(O)C1CCC(=O)N1S(=O)(=O)c1ccccc1 (stereo not given) | – | – | inactive
33 | COc1ccc(-c2cc(NC(=O)c3ccccc3)c(=O)oc2C)cc1 | > 200 | > 200 | –
34 | Cl/C(N=Nc1ccccc1)=N/Nc1ccccc1 | – | – | inactive
35 | CCOP(=O)(OCC)C(N)Cc1ccc(OC)c(OC)c1 (stereo not given) | > 200 | > 200 | –
36 | c1ccc(CN[C@]23C4C5CC6C7C5C2C7[C@@](NCc2ccccc2)(C64)N3Cc2ccccc2)cc1 (stereo not given in full) | > 200 | 105 | –
37 | COc1cc(Cc2c(OC)c(OC)cc(C)c2C(=O)O)cc(OC)c1 | > 145 | > 145 | –
38 | CC(=S)N=Cc1c(O)cc(C)oc1=O | > 200 | > 200 | –
39 | O=NNc1nc(-c2cccnc2)nc2ccccc12 | > 200 | > 200 | –
40 | CC(=O)NC(C(=O)O)C(C)(C)SN=O (stereo not given) | > 1120 | 240 | –
41 | N#CCC[P+](c1ccccc1)(c1ccccc1)c1ccccc1 | > 200 | 55 | –
42 | O=C(c1ccccc1)N1CCN(C(=S)N(C(=O)c2ccccc2)c2ccccc2)C1=S | > 200 | 3.72 | –
43 | NC(=O)N/N=C/c1ccc(Cl)cc1 | > 132 | > 132 | –
44 | COc1ccc(C2SCc3nc4ccccc4n32)cc1 (stereo not given) | – | – | inactive
45 | CC1=C(S(=O)c2ccc(C)cc2)CCC2(CCCCO2)O1 (stereo not given) | > 200 | 107 | –
